What was measured:
Type in all cases: cell-based
hGPR17L-A131T = biological target: T1, hGPR17L-A131T (Homo sapiens, UniProt Q13304, A131T); test: GloSensor stimulatory cAMP assay with pertussis toxin pretreatment
T1 construct: expressed in transfected cells; host or cells: HEK293 (ATCC CRL-1573), transient transfection
Description: (§1) For agonist-mediated stimulatory cAMP assays, HEK293 cells were seeded and transfected as noted above. Cells were treated with 100 ng/ml pertussis toxin overnight (Sigma-Aldrich P2980). Twenty-four hours posttransfection, growth medium and transfection mix were aspirated and replaced with 100 μl/well equilibration medium (2% Promega GloSensor cAMP reagent [E1291; Promega Corporation] in CO2-independent medium) containing 100 ng/ml pertussis toxin and incubated at room temperature for 2 h. Baseline luminescence was read every 2 min on a Molecular Devices SpectraMax iD5 plate reader (Molecular Devices) at ambient room temperature for 8 min. Subsequently, 10 μl/well MDL29,951 diluted in assay buffer (HBSS, 20 mM HEPES, pH 7.2) was added and luminescence was read every 2 min for 16 min. Within each well, the luminescence values for each time point were normalized to their average baseline luminescence values. The average luminescence values for the time points between 8 and 16 min after MDL29,951 addition were expressed as a percentage of the maximum response observed for hGPR17L-WT.

hGPR17L-F43L = biological target: T2, hGPR17L-F43L (Homo sapiens, UniProt Q13304, F43L); test: as above
T2 construct: expressed in transfected cells; host or cells: HEK293 (ATCC CRL-1573), transient transfection
T2 sequence (Q13304 whole entry F43L): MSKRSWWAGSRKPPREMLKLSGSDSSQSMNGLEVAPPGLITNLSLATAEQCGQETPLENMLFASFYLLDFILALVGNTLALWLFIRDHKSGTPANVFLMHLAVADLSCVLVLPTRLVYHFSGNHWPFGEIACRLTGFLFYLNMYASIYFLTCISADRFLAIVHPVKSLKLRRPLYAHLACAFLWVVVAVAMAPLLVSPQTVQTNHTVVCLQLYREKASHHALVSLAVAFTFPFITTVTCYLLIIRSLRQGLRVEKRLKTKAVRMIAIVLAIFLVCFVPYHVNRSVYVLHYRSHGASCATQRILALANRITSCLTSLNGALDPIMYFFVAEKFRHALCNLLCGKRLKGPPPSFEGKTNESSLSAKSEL
Description: as §1

hGPR17L-R301H [1] = biological target: T3, hGPR17L-R301H (Homo sapiens, UniProt Q13304, R301H); test: as above
T3 construct: expressed in transfected cells; host or cells: HEK293 (ATCC CRL-1573)
T3 sequence (Q13304 whole entry R301H): as the sequence (Q13304 whole entry F43L) above, with L43F, R301H counted along it
Description: as §1

hGPR17L-G354V = biological target: T4, hGPR17L-G354V (Homo sapiens, UniProt Q13304, G354V); test: as above
T4 construct: expressed in transfected cells; host or cells: HEK293 (ATCC CRL-1573)
T4 sequence (Q13304 whole entry G354V): as the sequence (Q13304 whole entry F43L) above, with L43F, G354V counted along it
Description: as §1

hGPR17L-V103M = biological target: T5, hGPR17L-V103M (Homo sapiens, UniProt Q13304, V103M); test: as above
T5 construct: expressed in transfected cells; host or cells: HEK293 (ATCC CRL-1573), transient transfection
T5 sequence (Q13304 whole entry V103M): as the sequence (Q13304 whole entry F43L) above, with L43F, V103M counted along it
Description: as §1

hGPR17L-R248Q = biological target: T6, hGPR17L-R248Q (Homo sapiens, UniProt Q13304, R248Q); test: as above
T6 construct: expressed in transfected cells; host or cells: HEK293 (ATCC CRL-1573), transient transfection
T6 sequence (Q13304 whole entry R248Q): as the sequence (Q13304 whole entry F43L) above, with L43F, R248Q counted along it
Description: as §1

hGPR17L-WT = biological target: T7, hGPR17L-WT (Homo sapiens, UniProt Q13304); test: GloSensor cAMP assay, inhibition of forskolin-stimulated cAMP
T7 construct: expressed in transfected cells; host or cells: HEK293 (ATCC CRL-1573), transient transfection of pcDNA3-HA-hGPR17L
T7 sequence (Q13304 whole entry): as the sequence (Q13304 whole entry F43L) above, with L43F counted along it
Description: (§2) HEK293 cells were seeded at 20,000 cells/well into white, opaque 96-well plates. The next day, cells were transiently cotransfected with pGloSensor-cAMP-22F and pcDNA3-HA-hGPR17L or pcDNA3-HA-hGPR17L-variants using lipofectamine 3000. Twenty-four hours posttransfection, growth medium and transfection mix were aspirated and replaced with 100 μl/well equilibration medium (2% Promega GloSensor cAMP reagent [E1291; Promega Corporation] in CO2-independent medium) and incubated at room temperature for 2 h. Baseline luminescence was read on a Molecular Devices SpectraMax iD5 plate reader (Molecular Devices) at ambient room temperature for 8 min. Subsequently, 10 μl/well MDL29,951 diluted in assay buffer (HBSS, 20 mM HEPES, pH 7.2) was added and luminescence was read for 10 min. Finally, 10 μl/well forskolin (1099; Tocris Bioscience) diluted in assay buffer was added and luminescence was measured for 20–30 min. The average luminescence value for the 14–20 min time points for each well was normalized to their average baseline luminescence value and expressed as a percentage of the forskolin-stimulated response within each transfection condition.

hGPR17L-V96M = biological target: T8, hGPR17L-V96M (Homo sapiens, UniProt Q13304, V96M); test: as above
T8 construct: expressed in transfected cells; host or cells: HEK293 (ATCC CRL-1573), transient transfection
T8 sequence (Q13304 whole entry V96M): as the sequence (Q13304 whole entry F43L) above, with L43F, V96M counted along it
Description: as §2

hGPR17L-D105N = biological target: T9, hGPR17L-D105N (Homo sapiens, UniProt Q13304, D105N); test: as above
T9 construct: expressed in transfected cells; host or cells: HEK293 (ATCC CRL-1573), transient transfection
T9 sequence (Q13304 whole entry D105N): as the sequence (Q13304 whole entry F43L) above, with L43F, D105N counted along it
Description: as §2

hGPR17L-R301H [2] = biological target: T3, hGPR17L-R301H; test: as above
Description: as §2

[3] = read-out: Stimulatory cAMP EC50
[4] = HEK293, inhibition of 3 μM forskolin-stimulated cAMP
[5] = read-out: cAMP IC50, HEK293, inhibition of 3 μM forskolin-stimulated cAMP

T1 sequence (Q13304 whole entry A131T): as the sequence (Q13304 whole entry F43L) above, with L43F, A131T counted along it

O=C(O)CCc1c(C(=O)O)[nH]c2cc(Cl)cc(Cl)c12 [MDL29,951]
Stimulatory cAMP pEC50 ± SEM (hGPR17L-A131T): 4.72 ± 0.05
loss of potency, fold shift in EC50 vs hGPR17L-WT (stimulatory cAMP) (hGPR17L-A131T): 3–7 fold
Stimulatory cAMP Efficacy (% of WT Emax) (hGPR17L-A131T; hGPR17L-A131T, HEK293, 100 ng/ml pertussis toxin overnight): 105 ± 21 % of WT Emax
EC50 (hGPR17L-A131T; [3]): 19 µM
Stimulatory cAMP pEC50 ± SEM (hGPR17L-F43L): 5.21 ± 0.13
Stimulatory cAMP Efficacy (% of WT Emax) (hGPR17L-F43L; hGPR17L-F43L, HEK293, 100 ng/ml pertussis toxin overnight): 99 ± 20 % of WT Emax
EC50 (hGPR17L-F43L; [3]): 6.2 µM
Stimulatory cAMP pEC50 ± SEM (hGPR17L-R301H [1]): 4.84 ± 0.12
Stimulatory cAMP Efficacy (% of WT Emax) (hGPR17L-R301H [1]; hGPR17L-R301H, HEK293, 100 ng/ml pertussis toxin overnight): 68 ± 11 % of WT Emax
EC50 (hGPR17L-R301H [1]; [3]): 16 µM
Stimulatory cAMP pEC50 ± SEM (hGPR17L-G354V): 4.88 ± 0.12
Stimulatory cAMP Efficacy (% of WT Emax) (hGPR17L-G354V; hGPR17L-G354V, HEK293, 100 ng/ml pertussis toxin overnight): 105 ± 23 % of WT Emax
EC50 (hGPR17L-G354V; [3]): 14 µM
Stimulatory cAMP pEC50 ± SEM (hGPR17L-V103M): 4.33 ± 0.36
loss of potency, fold shift in EC50 vs hGPR17L-WT (stimulatory cAMP) (hGPR17L-V103M): 3–7 fold
Stimulatory cAMP Efficacy (% of WT Emax) (hGPR17L-V103M; hGPR17L-V103M, HEK293, 100 ng/ml pertussis toxin overnight): 150 ± 48 % of WT Emax
EC50 (hGPR17L-V103M; [3]): 47 µM
Stimulatory cAMP pEC50 ± SEM (hGPR17L-R248Q): 5.22 ± 0.01
Stimulatory cAMP Efficacy (% of WT Emax) (hGPR17L-R248Q; hGPR17L-R248Q, HEK293, 100 ng/ml pertussis toxin overnight): 41 ± 1.7 % of WT Emax
EC50 (hGPR17L-R248Q; [3]): 6.1 µM
cAMP Efficacy (% inhibition) (hGPR17L-WT; HEK293, 3 μM forskolin): 47 ± 2.5 % inhibition
cAMP 10 μM MDL +3 μM FSK (% of FSK) (hGPR17L-WT; HEK293, 10 μM MDL29,951): 92 ± 4.4 % of FSK
cAMP 100 μM MDL +3 μM FSK (% of FSK) (hGPR17L-WT; HEK293, 100 μM MDL29,951): 115 ± 6.1 % of FSK
cAMP pIC50 ± SEM (hGPR17L-WT; [4]): 8.52 ± 0.13
IC50 (hGPR17L-WT; [5]): 0.003 µM
cAMP Efficacy (% inhibition) (hGPR17L-V96M; HEK293, 3 μM forskolin): 36 ± 4.2 % inhibition
cAMP 10 μM MDL +3 μM FSK (% of FSK) (hGPR17L-V96M; HEK293, 10 μM MDL29,951): 60 ± 5.6 % of FSK
cAMP 100 μM MDL +3 μM FSK (% of FSK) (hGPR17L-V96M; HEK293, 100 μM MDL29,951): 65 ± 4.6 % of FSK
cAMP pIC50 ± SEM (hGPR17L-V96M; [4]): 8.77 ± 0.36
IC50 (hGPR17L-V96M; [5]): 0.0017 µM
fold less potent for inhibition of forskolin-stimulated cAMP relative to hGPR17L-WT (hGPR17L-D105N): sixfold less potent
cAMP Efficacy (% inhibition) (hGPR17L-D105N; HEK293, 3 μM forskolin): 48 ± 4.7 % inhibition
cAMP 10 μM MDL +3 μM FSK (% of FSK) (hGPR17L-D105N; HEK293, 10 μM MDL29,951): 49 ± 7.3 % of FSK
cAMP 100 μM MDL +3 μM FSK (% of FSK) (hGPR17L-D105N; HEK293, 100 μM MDL29,951): 56 ± 10 % of FSK
cAMP pIC50 ± SEM (hGPR17L-D105N; [4]): 7.75 ± 0.25
IC50 (hGPR17L-D105N; [5]): 0.018 µM
cAMP Efficacy (% inhibition) (hGPR17L-R301H [2]; HEK293, 3 μM forskolin): 52 ± 5.2 % inhibition
cAMP 10 μM MDL +3 μM FSK (% of FSK) (hGPR17L-R301H [2]; HEK293, 10 μM MDL29,951): 72 ± 2.5 % of FSK
cAMP 100 μM MDL +3 μM FSK (% of FSK) (hGPR17L-R301H [2]; HEK293, 100 μM MDL29,951): 101 ± 2.9 % of FSK
cAMP pIC50 ± SEM (hGPR17L-R301H [2]; [4]): 8.00 ± 0.46
IC50 (hGPR17L-R301H [2]; [5]): 0.01 µM
